Measured values: ChEMBL document CHEMBL5500347, “An update on antibacterial AlkylGuanidino Ureas: Design of new derivatives, synergism with colistin and data analysis of the whole library” (2024)
≈ marks a conversion by molar mass, not a printed value. Calls of active or inactive are those of the source. The rule behind the calls is not given here.

What was measured:
Bacillus subtilis = assay: Antibacterial activity against Bacillus subtilis ATCC 6633 incubated for 18 to 24 hrs by CLSI based microdilution broth method; format: functional; conditions: time 18-24 hrs
Enterococcus faecalis = assay: Antibacterial activity against Enterococcus faecalis ATCC 19433 incubated for 18 to 24 hrs by CLSI based microdilution broth method; format: functional; conditions: time 18-24 hrs
Klebsiella pneumoniae [1] = assay: Antibacterial activity against Klebsiella pneumoniae ATCC 13833 at 256 ug/ml incubated for 18 to 24 hrs by CLSI based microdilution broth method; format: functional, organism-based; conditions: dose 256.0 µg/ml, time 18-24 hrs
Pseudomonas aeruginosa [2] = assay: Antibacterial activity against Pseudomonas aeruginosa ATCC 27853 at 256 ug/ml incubated for 18 to 24 hrs by CLSI based microdilution broth method; format: functional, organism-based; conditions: dose 256.0 µg/ml, time 18-24 hrs
Streptococcus pyogenes = assay: Antibacterial activity against Streptococcus pyogenes ATCC 12344 incubated for 18 to 24 hrs by CLSI based microdilution broth method; format: functional; conditions: time 18-24 hrs
Escherichia coli [3] = assay: Antibacterial activity against Escherichia coli CCUGT at 256 ug/ml incubated for 18 to 24 hrs by CLSI based microdilution broth method; format: functional, organism-based; conditions: dose 256.0 µg/ml, time 18-24 hrs
Staphylococcus aureus = assay: Antibacterial activity against Staphylococcus aureus ATCC 25923 incubated for 18 to 24 hrs by CLSI based microdilution broth method; format: functional; conditions: time 18-24 hrs
Acinetobacter baumannii [4] = assay: Antibacterial activity against Acinetobacter baumannii ATCC 17978 at 256 ug/ml incubated for 18 to 24 hrs by CLSI based microdilution broth method; format: functional, organism-based; conditions: dose 256.0 µg/ml, time 18-24 hrs
Escherichia coli [5] = assay: Synergistic antibacterial activity against Escherichia coli CCUGT assessed as potentiation fold by measuring MIC to MAC ratio incubated for 18 to 24 hrs in presence of colistin by CLSI based microdilution broth method; format: functional; conditions: time 18-24 hrs
Escherichia coli [6] = assay: Synergistic antibacterial activity against Escherichia coli CCUGT incubated for 18 to 24 hrs in presence of colistin by CLSI based microdilution broth method; format: functional; conditions: time 18-24 hrs
Escherichia coli [7] = assay: Antibacterial activity against Escherichia coli CCUGT incubated for 18 to 24 hrs by CLSI based microdilution broth method; format: functional; conditions: Escherichia coli, CCUGT; time 18-24 hrs; read-out: MIC
Acinetobacter baumannii [8] = assay: Synergistic antibacterial activity against Acinetobacter baumannii ATCC 17978 assessed as potentiation fold by measuring MIC to MAC ratio incubated for 18 to 24 hrs in presence of colistin by CLSI based microdilution broth method; format: functional; conditions: time 18-24 hrs
Acinetobacter baumannii [9] = assay: Antibacterial activity against Acinetobacter baumannii ATCC 17978 incubated for 18 to 24 hrs by CLSI based microdilution broth method; format: functional; conditions: Acinetobacter baumannii, ATCC 17978; time 18-24 hrs
Acinetobacter baumannii [10] = assay: Synergistic antibacterial activity against Acinetobacter baumannii ATCC 17978 incubated for 18 to 24 hrs in presence of colistin by CLSI based microdilution broth method; format: functional; conditions: time 18-24 hrs
Klebsiella pneumoniae [11] = assay: Antibacterial activity against Klebsiella pneumoniae ATCC 13833 incubated for 18 to 24 hrs by CLSI based microdilution broth method; format: functional; conditions: Klebsiella pneumoniae, ATCC 13833; time 18-24 hrs; read-out: MIC
Pseudomonas aeruginosa [12] = assay: Antibacterial activity against Pseudomonas aeruginosa ATCC 27853 incubated for 18 to 24 hrs by CLSI based microdilution broth method; format: functional; conditions: Pseudomonas aeruginosa, ATCC 27853; time 18-24 hrs
Acinetobacter baumannii [13] = assay: Antibacterial activity against Acinetobacter baumannii N50 incubated for 18 to 24 hrs by CLSI based microdilution broth method; format: functional; conditions: time 18-24 hrs
Acinetobacter baumannii [14] = assay: Synergistic antibacterial activity against Acinetobacter baumannii N50 incubated for 18 to 24 hrs in presence of colistin by CLSI based microdilution broth method; format: functional; conditions: time 18-24 hrs
Acinetobacter baumannii [15] = assay: Synergistic antibacterial activity against Acinetobacter baumannii N50 assessed as potentiation fold by measuring MIC to MAC ratio incubated for 18 to 24 hrs in presence of colistin by CLSI based microdilution broth method; format: functional; conditions: time 18-24 hrs

| SMILES | MIC (Bacillus subtilis) [µg/mL] | MIC (Enterococcus faecalis) [µg/mL] | Activity (Klebsiella pneumoniae [1]) | Activity (Pseudomonas aeruginosa [2]) | MIC (Streptococcus pyogenes) [µg/mL] | Activity (Escherichia coli [3]) | MIC (Staphylococcus aureus) [µg/mL] | Activity (Acinetobacter baumannii [4]) | Ratio (Escherichia coli [5]) | MAC (Escherichia coli [6]) [µg/mL] | MIC (Escherichia coli [7]) [µg/mL] | Ratio (Acinetobacter baumannii [8]) | MIC (Acinetobacter baumannii [9]) [µg/mL] | MAC (Acinetobacter baumannii [10]) [µg/mL] | MIC (Klebsiella pneumoniae [11]) [µg/mL] | MIC (Pseudomonas aeruginosa [12]) [µg/mL] | MIC (Acinetobacter baumannii [13]) [µg/mL] | MAC (Acinetobacter baumannii [14]) [µg/mL] | Ratio (Acinetobacter baumannii [15]) |
| --- | --- | --- | --- | --- | --- | --- | --- | --- | --- | --- | --- | --- | --- | --- | --- | --- | --- | --- | --- |
| CC(C)NC(=N)NCCCCCCCCNC(N)=O.O=C(O)C(F)(F)F | 64 | 128 | inactive | inactive | 64 | inactive | 64 | inactive | – | – | – | – | – | – | – | – | – | – | – |
| CCNC(=N)NCCCCCCCCNC(N)=O.O=C(O)C(F)(F)F | 64 | 128 | inactive | inactive | 64 | inactive | 32 | inactive | – | – | – | – | – | – | – | – | – | – | – |
| CCNC(=N)NCCCCCCN(CCCCCCNC(=N)NCC1CC1)C(=O)N(CCCCCCNC(=N)NCC)CCCCCCNC(=N)NCC1CC1 | – | – | – | – | – | – | – | – | 1 | 8 | 8 (≈ 10.1 µM) | 16 | 64 (≈ 81.1 µM) | 4 | 16 (≈ 20.3 µM) | 128 (≈ 162 µM) | – | – | – |
| C/C=C/CNC(=N)NCCCCCCCCNC(N)=O.O=C(O)C(F)(F)F | 64 | 64 | – | inactive | 32 | – | 32 | inactive | – | – | 128 | – | – | – | 128 | – | – | – | – |
| CCNC(=N)NCCCCCCCCN(CCCCCCCCNC(=N)NCC)C(=O)N(CCCCCCCCNC(=N)NCC)CCCCCCCCNC(=N)NCC | – | – | – | – | – | – | – | – | – | – | 2 (≈ 2.35 µM) | 32 | 16 (≈ 18.8 µM) | 0.5 | 4 (≈ 4.71 µM) | 64 (≈ 75.4 µM) | 64 (≈ 75.4 µM) | 0.25 | 256 |
| C/C=C/CNC(=N)NCCCCCCCCN(CCCCCCCCNC(=N)N)C(=O)N(CCCCCCCCNC(=N)N)CCCCCCCCNC(=N)NC/C=C/C.O=C(O)C(F)(F)F | 2 | 2 | – | – | 2 | – | 1 | – | – | – | 2 | – | 8 | – | 2 | 16 | – | – | – |
| N=C(N)NCCCCCCCCN(CCCCCCNC(=N)NCC1CC1)C(=O)N(CCCCCCCCNC(=N)N)CCCCCCNC(=N)NCC1CC1.O=C(O)C(F)(F)F | 1 | 8 | – | – | 1 | – | 0.25 | – | – | – | 4 | – | 64 | – | 4 | 128 | – | – | – |
| N=C(N)NCCCCCCCCCN(CCCCCCCCCNC(=N)NCC1CC1)C(=O)N(CCCCCCCCCNC(=N)N)CCCCCCCCCNC(=N)NCC1CC1.O=C(O)C(F)(F)F | 4 | 4 | – | – | 2 | – | 4 | – | – | – | 8 | – | 8 | – | 16 | 16 | – | – | – |
| CNC(=N)NCCCCCCCCNC(N)=O.O=C(O)C(F)(F)F | 128 | 128 | inactive | inactive | 64 | inactive | 32 | inactive | – | – | – | – | – | – | – | – | – | – | – |
| N=C(NCCCCCCNC(N)=O)NCC1CC1.O=C(O)C(F)(F)F | 128 | 128 | inactive | inactive | 128 | inactive | 128 | inactive | – | – | – | – | – | – | – | – | – | – | – |
| CC(C)CNC(=N)NCCCCCCCCN(CCCCCCCCNC(=N)N)C(=O)N(CCCCCCCCNC(=N)N)CCCCCCCCNC(=N)NCC(C)C.O=C(O)C(F)(F)F | 2 | 4 | – | – | 4 | – | 2 | – | – | – | 4 | – | 8 | – | 4 | 16 | – | – | – |
